# Data as given in patent US20120077732A1, “CYCLIC PEPTIDES AND USES THEREOF” (SYDNEY WEST AREA HEALTH SERVICE, priority 2008, published 2012).
# Like-named read-outs stand apart in the source and are kept apart here.
# Columns and labels:
# [1] = tested on: 2B4.11 hybridoma; experiment: Antigen presentation assay (IL-2 produced in response to antigen); format: cell-based; conditions: for % Ave IL2 Production: average, Tables 1-3; for IL2 %: 50 μM, relative to DMSO control (100%); for IL-2 production, % of the solvent only control value: 0.5% DMSO, ±SD
# [2] = tested on: S. aureus; format: cell-based
# Procedure: (§1) The synthetic C1 peptide and its analogues were tested using Standard disk susceptibility testing by National Committee for […] Laboratory Standards (NCCLS) against, S. aureus, E. coli and S. pneumoniae. […]
# [3] = tested on: S. pneumoniae; experiment: Standard disk susceptibility testing (NCCLS), S. pneumoniae; format: cell-based
# Procedure: as §1
# [4] = tested on: E. coli; experiment: Standard disk susceptibility testing (NCCLS), E. coli; format: cell-based
# Procedure: as §1
# [5] = Surface plasmon resonance binding to DMPC liposomes; conditions: SPR, L1 sensor chip, 50 μM, 25° C.
# Procedure: (§2) Model membranes composed of zwitterionic and anionic phospholipids were prepared as previously described (Bender et al., 2004). Briefly, DMPC and DMPG were dissolved in dry chloroform and chloroform/methanol (2:1) respectively to give 10 mg/ml solutions. […] The solution was sonicated in an ultrasonic bath for 20 min. Eight cycles of freeze/thawing was followed by extrusion through polycarbonate filters, first 100 nm (21 times) then 50 nm pore diameter (21 times), using a Lipofast apparatus (Avestin, Ottawa, Canada) and SUVs were used immediately. SPR was carried out on a BIAcore 2000 instrument using Pioneer Sensor Chip L1 and HEPES (HBS-N, Biacore, Upssala, Sweden) as running buffer. The chip surface was cleaned with 40 mM octyl glycoside (30 μl, 10 μl/min) followed liposomes (SUV) (100 μl, 5 μl/min). 10 mM NaOH (40 μl, 10 μl/min) removed any multilamellar vesicles from the surface before injecting the lipopeptide solutions (100 μl, 5 μl/min). The dissociation stage was 1200 sec. […] All SPR experiments were run at 25° C. and all analyses were performed using the BIAevaluation software (Biacore, Uppsala, Sweden). Lipopeptide binding was expressed as the difference in signal between points before sample injection and after dissociation.
# [6] = Surface plasmon resonance binding to DMPG liposomes; conditions: for binding to DMPG (anionic) liposomes: SPR, L1 sensor chip, 50 μM, 25° C.
# Procedure: as §2
# [7] = tested on: allergic mice (OVA/OVA); experiment: Allergic airways disease (OVA) model: local and systemic OVA-specific cytokine production; format: in vivo; parameters: key to Spleen OVA-stimulated IL-5 / Spleen OVA-stimulated IL-13 / LN OVA-stimulated IL-5 / LNOVA stimulated IL-13: nc: no change; ↑: increase; ↓: decrease; conditions: 200 μg/100 μl s.c. during OVA challenge; compared to OVA/OVA alone
# [8] = tested on: allergic mice (OVA/OVA); experiment: Allergic airways disease (OVA) model: airways hyperreactivity to methacholine; format: in vivo; parameters: key to Airway Resistance / Airway Compliance: nc: no change; ↑: increase; ↓: decrease; conditions: 200 μg/100 μl s.c. during OVA challenge; compared to OVA/OVA alone
# [9] = tested on: allergic mice (OVA/OVA); experiment: Allergic airways disease (OVA) model: inflammatory cells in BALF; format: in vivo; parameters: key to Airway lymphocytes / Airway eosinophils / Airway macrophages / Airway inflammatory cells / Airway neutrophils: nc: no change; ↑: increase; ↓: decrease; conditions: 200 μg/100 μl s.c. during OVA challenge; compared to OVA/OVA alone
# [10] = second IL2 column (individual experiment in triplicate)
# [11] = third IL2 column (individual experiment in triplicate)
# [12] = fifth IL2 column (individual experiment in triplicate)
# [13] = fourth IL2 column (individual experiment in triplicate)
# [14] = first IL2 column (individual experiment in triplicate)
compound,measurement,setting,value
LDKLDKKDKLDKVDG (cyclo(LDKLDKKDKLDKVDG); ring closure inferred; not fully specified) [C11],% Ave IL2 Production,[1],96%
same,IL2 %,[1]; [10],88.5%
same,IL2 %,[1]; [11],104%
LDLLDLLDRLDKVDG (cyclo(LDLLDLLDRLDKVDG); ring closure inferred; not fully specified) [C8],% Ave IL2 Production,[1],33%
same,IL2 %,[1]; [12],17.4%
same,IL2 %,[1]; [13],20.2%
same,IL2 %,[1]; [10],35%
same,IL2 %,[1]; [11],(61.2) %
LDKLDLLDLLDKVDG (cyclo(LDKLDLLDLLDKVDG); ring closure inferred; not fully specified) [C5],% Ave IL2 Production,[1],78%
same,IL2 %,[1]; [14],73.6%
same,IL2 %,[1]; [10],75%
same,IL2 %,[1]; [11],85.4%
"CO/N=C(\C(=O)N[C@@H]1C(=O)N2C(C(=O)O)=C(COC(C)=O)CS[C@H]12)c1csc(N)n1 [Ceforaxime, reference compound]","antimicrobial activity, S. aureus",[2]; 30 μg/ml,−ve
same,"antimicrobial activity, S. pneumoniae",[3]; 30 μg/ml,−ve
same,"antimicrobial activity, E. coli",[4]; 30 μg/ml,+ve
LDRLDKLDKLDKVDG (cyclo(LDRLDKLDKLDKVDG); ring closure inferred; not fully specified) [C10],% Ave IL2 Production,[1],59%
same,IL2 %,[1]; [12],64.1%
same,IL2 %,[1]; [13],54%
RDLLDLLDLLDKVDG [C7],% Ave IL2 Production,[1],49%
same,IL2 %,[1]; [12],76.4%
same,IL2 %,[1]; [14],29%
same,IL2 %,[1]; [13],71%
same,IL2 %,[1]; [10],15.4%
same,IL2 %,[1]; [11],54%
"LDRLDLLDKLDKVDG (cyclo(LDRLDLLDKLDKVDG); ring closure inferred; not fully specified) [C3, cyclic peptide 3]","antimicrobial activity, S. aureus",[2]; peptide 100 μg/ml,−ve
same,"antimicrobial activity, S. aureus",[2]; peptide 1000 μg/ml,−ve
same,"antimicrobial activity, S. pneumoniae",[3]; peptide 100 μg/ml,−ve
same,"antimicrobial activity, S. pneumoniae",[3]; peptide 1000 μg/ml,−ve
same,"antimicrobial activity, E. coli",[4]; peptide 100 μg/ml,−ve
same,"antimicrobial activity, E. coli",[4]; peptide 1000 μg/ml,−ve
same,binding to DMPC (zwitterionic) liposomes,[5],no binding at all
same,% Ave IL2 Production,[1],95%
same,"IL-2 production, % of the solvent only control value",[1]; peptide 50 μM,91.69%±25.86
same,binding to DMPG (anionic) liposomes,[6],no binding at all
LDRLDLLDLLDRVDG [C4],"antimicrobial activity, S. aureus",[2]; peptide 10 μg/ml,−ve
same,"antimicrobial activity, S. aureus",[2]; peptide 100 μg/ml,−ve
same,"antimicrobial activity, S. aureus",[2]; peptide 1000 μg/ml,−ve
same,"antimicrobial activity, S. pneumoniae",[3]; peptide 10 μg/ml,−ve
same,"antimicrobial activity, S. pneumoniae",[3]; peptide 100 μg/ml,−ve
same,"antimicrobial activity, S. pneumoniae",[3]; peptide 1000 μg/ml,−ve
same,"antimicrobial activity, E. coli",[4]; peptide 10 μg/ml,−ve
same,"antimicrobial activity, E. coli",[4]; peptide 100 μg/ml,−ve
same,"antimicrobial activity, E. coli",[4]; peptide 1000 μg/ml,−ve
same,binding to DMPC (zwitterionic) liposomes,[5],no binding at all
same,% Ave IL2 Production,[1],72%
same,"IL-2 production, % of the solvent only control value",[1]; peptide 50 μM,74.54%±11.22
same,binding to DMPG (anionic) liposomes,[6],no binding at all
LDRLDKLDLLDKVDG (cyclo(LDRLDKLDLLDKVDG); ring closure inferred; not fully specified) [C9],% Ave IL2 Production,[1],25%
same,IL2 %,[1]; [12],16.9%
same,IL2 %,[1]; [13],6.75%
same,IL2 %,[1]; [10],11.5%
same,IL2 %,[1]; [11],(65.3) %
LDRLDKVDG (cyclo(LDRLDKVDG); ring closure inferred; not fully specified) [6AA],% Ave IL2 Production,[1],35%
same,IL2 %,[1]; [12],44.3%
same,IL2 %,[1]; [14],9.0%
same,IL2 %,[1]; [13],33.7%
same,IL2 %,[1]; [10],36.5%
same,IL2 %,[1]; [11],(52) %
"Cc1onc(-c2ccccc2)c1C(=O)N[C@@H]1C(=O)N2[C@@H]1SC(C)(C)[C@@H]2C(=O)O [Oxacillin, reference compound]","antimicrobial activity, S. aureus",[2]; 1 μg/ml,+ve
same,"antimicrobial activity, S. pneumoniae",[3]; 1 μg/ml,+ve
same,"antimicrobial activity, E. coli",[4]; 1 μg/ml,−ve
LDLLDRLDLLDKVDG (cyclo(LDLLDRLDLLDKVDG); ring closure inferred; not fully specified) [C6],% Ave IL2 Production,[1],99%
same,IL2 %,[1]; [14],104.5%
same,IL2 %,[1]; [10],104%
same,IL2 %,[1]; [11],89%
"C[C@H]1C[C@@H]2[C@H]([C@@H](O)C[C@@]3(C)[C@H]2CC[C@]3(O)C(=O)CO)[C@@]2(C)C=CC(=O)C=C12 [methylprednisolone, reference compound]",LN OVA-stimulated IL-5,[7],nc
same,LNOVA stimulated IL-13,[7],nc
same,Spleen OVA-stimulated IL-5,[7],↓
same,Spleen OVA-stimulated IL-13,[7],↓
same,Airway Compliance,[8],↑
same,Airway Resistance,[8],↓
same,Airway eosinophils,[9],↓
same,Airway inflammatory cells,[9],↓
same,Airway lymphocytes,[9],nc
same,Airway macrophages,[9],↓
same,Airway neutrophils,[9],↓
LDRLDLLDKVDG [8AA],% Ave IL2 Production,[1],72%
LDRLDKKDKLDKVDG (cyclo(LDRLDKKDKLDKVDG); ring closure inferred; not fully specified) [C12],% Ave IL2 Production,[1],27%
same,IL2 %,[1]; [12],24%
same,IL2 %,[1]; [14],9.0%
same,IL2 %,[1]; [13],33.7%
same,IL2 %,[1]; [10],21%
same,IL2 %,[1]; [11],(49) %
LDKLDKLDKLDKVDG [C2],"antimicrobial activity, S. aureus",[2]; peptide 10 μg/ml,−ve
same,"antimicrobial activity, S. aureus",[2]; peptide 100 μg/ml,−ve
same,"antimicrobial activity, S. aureus",[2]; peptide 1000 μg/ml,−ve
same,"antimicrobial activity, S. pneumoniae",[3]; peptide 10 μg/ml,−ve
same,"antimicrobial activity, S. pneumoniae",[3]; peptide 100 μg/ml,−ve
same,"antimicrobial activity, S. pneumoniae",[3]; peptide 1000 μg/ml,−ve
same,"antimicrobial activity, E. coli",[4]; peptide 10 μg/ml,−ve
same,"antimicrobial activity, E. coli",[4]; peptide 100 μg/ml,−ve
same,"antimicrobial activity, E. coli",[4]; peptide 1000 μg/ml,−ve
same,binding to DMPC (zwitterionic) liposomes,[5],only very limited binding
same,% Ave IL2 Production,[1],22%
same,"IL-2 production, % of the solvent only control value",[1]; peptide 25 μM,58.74%±7.63
same,"IL-2 production, % of the solvent only control value",[1]; peptide 50 μM,24.51%±8.81
same,binding to the anionic liposome,[6]; SPR sensorgram,3000 RU
